Legend:
Assay type in all cases: in vivo
[1] = tested on: water seeded rice seedlings (Oryza sativa cv. ‘Japonica-M202’); experiment: Test E flooded paddy water application; conditions: Flood, 21 days, scale 0 to 100 (0 no effect, 100 complete control)
Outline: (§1)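 Response scored visually on a 0–100 scale (100 = complete control) at 21 days against untreated pots. Treatment was into paddy water 3 cm deep over silt loam, with plants at the 2.0–2.5-leaf stage, grown under 16-h light at 29.5/26.7 °C day/night.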

[2] = tested on: smallflower umbrella sedge (Cyperus difformis); experiment: Test E flooded paddy water application; conditions: Flood, 21 days, scale 0 to 100 (0 no effect, 100 complete control)
Outline: as §1

[3] = tested on: early watergrass (Echinochloa oryzoides); experiment: Test E flooded paddy water application; conditions: Flood, 21 days, scale 0 to 100 (0 no effect, 100 complete control)
Outline: as §1

[4] = tested on: junglerice (Echinochloa colona); experiment: Test E flooded paddy water application; conditions: Flood, 21 days, scale 0 to 100 (0 no effect, 100 complete control)
Outline: as §1

[5] = tested on: transplanted rice seedlings (Oryza sativa cv. ‘Japonica-M202’); experiment: Test E flooded paddy water application; conditions: Flood, 21 days, scale 0 to 100 (0 no effect, 100 complete control)
Outline: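 Greenhouse pots of Tama silt loam with weeds and rice at 2.0–2.5-leaf stage, flooded to 3 cm; compounds applied directly into paddy water, depth maintained. Visual rating versus untreated controls after 21 days, 0 (no effect) to 100 (complete control); 29.5/26.7 °C, 16-h photoperiod.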

[6] = tested on: barnyardgrass (Echinochloa crus-galli); experiment: Test E flooded paddy water application; conditions: Flood, 21 days, scale 0 to 100 (0 no effect, 100 complete control)
Outline: as §1

[7] = tested on: late watergrass (Echinochloa oryzicola); experiment: Test E flooded paddy water application; conditions: Flood, 21 days, scale 0 to 100 (0 no effect, 100 complete control)
Outline: as §1

[8] = tested on: ducksalad (Heteranthera limosa); experiment: Test E flooded paddy water application; conditions: Flood, 21 days, scale 0 to 100 (0 no effect, 100 complete control)
Outline: as §1

[9] = tested on: bearded (brdd.) sprangletop (Leptochloa fusca ssp. fascicularis); experiment: Test E flooded paddy water application; conditions: Flood, 21 days, scale 0 to 100 (0 no effect, 100 complete control)
Outline: as §1

[10] = tested on: yellow nutsedge (Cyperus esculentus); experiment: Test C pre/postemergence; conditions: Postemergence
Outline: (§2)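 We sprayed seeded pots preemergence and 2–18 cm seedlings postemergence with test chemicals in a non-phytotoxic solvent mixture including surfactant. Greenhouse plants were visually compared with untreated controls at 12 to 14 days and scored 0 (no effect) to 100 (complete control).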

[11] = tested on: velvetleaf (Abutilon theophrasti); experiment: Test C pre/postemergence; conditions: Postemergence
Outline: as §2

[12] = 125 g ai/ha, scale 0 to 100 (0 no effect, 100 complete control)

Nc1nc(-c2ccc(Cl)cc2)nc(C(=O)O)c1Br [Compound 88]
Rice, Water Seeded plant response rating ([1]; 32 g ai/ha): 0
Rice, Water Seeded plant response rating ([1]; 64 g ai/ha): 0
Rice, Water Seeded plant response rating ([1]; 125 g ai/ha): 0
Rice, Water Seeded plant response rating ([1]; 250 g ai/ha): 0
Plant response rating, Rice, Water Seeded ([1]; 16 g ai/ha): 0
Sedge, Umbrella plant response rating ([2]; 32 g ai/ha): 40
Sedge, Umbrella plant response rating ([2]; 125 g ai/ha): 85
Sedge, Umbrella plant response rating ([2]; 250 g ai/ha): 95
Plant response rating, Sedge, Umbrella ([2]; 16 g ai/ha): 40
Watergrass, Early plant response rating ([3]; 32 g ai/ha): 0
Watergrass, Early plant response rating ([3]; 64 g ai/ha): 0
Watergrass, Early plant response rating ([3]; 125 g ai/ha): 0
Watergrass, Early plant response rating ([3]; 250 g ai/ha): 50
Plant response rating, Watergrass, Early ([3]; 16 g ai/ha): 0
Junglerice plant response rating ([4]; 32 g ai/ha): 0
Junglerice plant response rating ([4]; 64 g ai/ha): 0
Junglerice plant response rating ([4]; 125 g ai/ha): 0
Junglerice plant response rating ([4]; 250 g ai/ha): 90
Plant response rating, Junglerice ([4]; 16 g ai/ha): 0
Rice, Transplanted plant response rating ([5]; 32 g ai/ha): 0
Rice, Transplanted plant response rating ([5]; 64 g ai/ha): 0
Rice, Transplanted plant response rating ([5]; 125 g ai/ha): 0
Rice, Transplanted plant response rating ([5]; 250 g ai/ha): 0
Plant response rating, Rice, Transplanted ([5]; 16 g ai/ha): 0
Barnyardgrass plant response rating ([6]; 32 g ai/ha): 0
Barnyardgrass plant response rating ([6]; 64 g ai/ha): 0
Barnyardgrass plant response rating ([6]; 125 g ai/ha): 0
Barnyardgrass plant response rating ([6]; 250 g ai/ha): 0
Plant response rating, Barnyardgrass ([6]; 16 g ai/ha): 0
Watergrass, Late plant response rating ([7]; 32 g ai/ha): 0
Watergrass, Late plant response rating ([7]; 64 g ai/ha): 0
Watergrass, Late plant response rating ([7]; 125 g ai/ha): 0
Watergrass, Late plant response rating ([7]; 250 g ai/ha): 0
Plant response rating, Watergrass, Late ([7]; 16 g ai/ha): 0
Ducksalad plant response rating ([8]; 32 g ai/ha): 100
Ducksalad plant response rating ([8]; 64 g ai/ha): 100
Ducksalad plant response rating ([8]; 125 g ai/ha): 100
Ducksalad plant response rating ([8]; 250 g ai/ha): 100
Plant response rating, Ducksalad ([8]; 16 g ai/ha): 95
Sprangletop, Brdd. plant response rating ([9]; 32 g ai/ha): 0
Sprangletop, Brdd. plant response rating ([9]; 64 g ai/ha): 0
Sprangletop, Brdd. plant response rating ([9]; 125 g ai/ha): 85
Sprangletop, Brdd. plant response rating ([9]; 250 g ai/ha): 95
Plant response rating, Sprangletop, Brdd. ([9]; 16 g ai/ha): 0
Plant response rating (scale of 0 to 100), Nutsedge, Yellow ([10]; 31 g ai/ha): 40
Plant response rating (scale of 0 to 100), Nutsedge, Yellow ([10]; 62 g ai/ha): 45
Nutsedge, Yellow plant response rating [10, 12]: 55
Plant response rating, Nutsedge, Yellow ([10]; 250 g ai/ha, scale 0 to 100): 75
Plant response rating (scale of 0 to 100), Velvetleaf ([11]; 31 g ai/ha): 85
Plant response rating (scale of 0 to 100), Velvetleaf ([11]; 62 g ai/ha): 90
Velvetleaf plant response rating [11, 12]: 95
Plant response rating, Velvetleaf ([11]; 250 g ai/ha, scale 0 to 100): 95

— patent US8802597B2, “Herbicidal pyrimidines” (E I du Pont de Nemours and Company, priority 2003, dated 2014)
